# Measurements taken from ChEMBL document CHEMBL1201862, “PubChem BioAssay data set” (2004).
#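 Five compound concentrations were applied to cells in 96-well plates for 48 hours; endpoints were derived by simple linear interpolation of the resulting dose-response curve. Here, GI50 denotes the concentration required for 50% inhibition of growth.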 Active and inactive are the calls of the source. Rule as the data show it: active = GI50 up to about 1.1 µM and inactive = higher.
# Key:
# Test in all cases: NCI anticancer screen, dose series, 48 h
# SR = test system: SR
# U-251 = test system: U-251
# OVCAR-4 = test system: OVCAR-4
# NCI-H460 = test system: NCI-H460
# HL-60 = test system: HL-60
# SK-MEL-5 = test system: SK-MEL-5
# HCT-116 = test system: HCT-116
# K562 = test system: K562
# HOP-92 = test system: HOP-92
# SW-620 = test system: SW-620
# SNB-75 = test system: SNB-75
# MOLT-4 = test system: MOLT-4
# OVCAR-3 = test system: OVCAR-3
# SF-295 = test system: SF-295
# SF-268 = test system: SF-268
# IGROV-1 = test system: IGROV-1
# HCC 2998 = test system: HCC 2998
# DU-145 = test system: DU-145
# MDA-MB-231 = test system: MDA-MB-231
# RPMI-8226 = test system: RPMI-8226
SMILES,GI50 (SR),GI50 (U-251),GI50 (OVCAR-4),GI50 (NCI-H460),GI50 (HL-60),GI50 (SK-MEL-5),GI50 (HCT-116),GI50 (K562),GI50 (HOP-92),GI50 (SW-620),GI50 (SNB-75),GI50 (MOLT-4),GI50 (OVCAR-3),GI50 (SF-295),GI50 (SF-268),GI50 (IGROV-1),GI50 (HCC 2998),GI50 (DU-145),GI50 (MDA-MB-231),GI50 (RPMI-8226)
COc1ccc(C(C)NNC(=O)c2cc[n+]([BH2-]C#N)cc2)cc1OC (stereo not given),> 100 µM (inactive),> 100 µM (inactive),> 100 µM (inactive),> 100 µM (inactive),> 100 µM (inactive),> 100 µM (inactive),> 100 µM (inactive),> 100 µM (inactive),> 100 µM (inactive),> 100 µM (inactive),> 100 µM (inactive),> 100 µM (inactive),> 100 µM (inactive),> 100 µM (inactive),> 100 µM (inactive),> 100 µM (inactive),> 100 µM (inactive),> 100 µM (inactive),> 100 µM (inactive),> 100 µM (inactive)
COCCc1c(C)c(C#N)c2n(C)c3ccccc3n2c1=O,> 10 µM (inactive),> 10 µM (inactive),> 10 µM (inactive),> 10 µM (inactive),0.00575 µM (active),> 10 µM (inactive),> 10 µM (inactive),0.566 µM (active),> 10 µM (inactive),> 10 µM (inactive),> 10 µM (inactive),> 10 µM (inactive),> 10 µM (inactive),> 10 µM (inactive),> 10 µM (inactive),> 10 µM (inactive),> 10 µM (inactive),> 10 µM (inactive),> 10 µM (inactive),> 10 µM (inactive)
CCN(CC)CCOc1ccc(N2Cc3ccccc3C2=O)cc1,> 10 µM (inactive),> 10 µM (inactive),> 10 µM (inactive),7.28 µM (inactive),> 10 µM (inactive),> 10 µM (inactive),> 10 µM (inactive),> 10 µM (inactive),> 10 µM (inactive),> 10 µM (inactive),> 10 µM (inactive),> 10 µM (inactive),> 10 µM (inactive),> 10 µM (inactive),> 10 µM (inactive),> 10 µM (inactive),> 10 µM (inactive),> 10 µM (inactive),> 10 µM (inactive),> 10 µM (inactive)
O[C@H]1[C@H](O)[C@@H](Cn2nnc(-c3ccccc3)c2-c2ccccc2)OCO[C@@H]1Cn1nnc(-c2ccccc2)c1-c1ccccc1,2.04 µM (inactive),3.73 µM (inactive),10.5 µM (inactive),3.67 µM (inactive),3.88 µM (inactive),4.32 µM (inactive),3.11 µM (inactive),4.01 µM (inactive),2.83 µM (inactive),5.22 µM (inactive),7.82 µM (inactive),2.7 µM (inactive),2.96 µM (inactive),3.78 µM (inactive),4.85 µM (inactive),3.65 µM (inactive),2.24 µM (inactive),7.4 µM (inactive),6.47 µM (inactive),2.32 µM (inactive)
